Measured values taken from the supplement of paper PMC11061612.

Experiments:
Test in all cases: Bliss excess, mean over the matrix (fraction); higher = more synergy
[1] = tested on: COR-L279 (Small Cell Lung Carcinoma)
How it was run: (§1)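 After 24 hours at 37°C and 5% CO2 in 1536-well plates, cells in DMEM/F12 or RPMI plus 10% FBS received two-drug dose matrices for 72 hours. Viability came from CellTiter-Glo 2.0 luminescence and was scaled as inhibition, anchored at 0 by vehicle wells and at 1 by blank wells. Combination Emax is taken as the second-highest inhibition in the matrix, and Bliss excess as the observed combination effect less EA + EB − EA·EB, with EA and EB the single-agent effects.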

[2] = tested on: DAN-G (Pancreatic Carcinoma)
How it was run: as §1

[3] = tested on: DMS-114 (Small Cell Lung Carcinoma)
How it was run: as §1

[4] = tested on: H9 (T-Cell Non-Hodgkin's Lymphoma)
How it was run: as §1

[5] = tested on: JHH-4 (Hepatocellular Carcinoma)
How it was run: as §1

[6] = tested on: KU812 (Chronic Myelogenous Leukemia)
How it was run: as §1

[7] = tested on: KYSE-270 (Esophageal Squamous Cell Carcinoma)
How it was run: as §1

[8] = tested on: M059J (Glioblastoma)
How it was run: as §1

[9] = tested on: MN-60 (B-Lymphoblastic Leukemia)
How it was run: as §1

[10] = tested on: MOG-G-CCM (Low Grade Glioma)
How it was run: as §1

[11] = tested on: MOLM-13 (Acute Myeloid Leukemia)
How it was run: as §1

[12] = tested on: NCCIT (Other Solid Carcinomas)
How it was run: as §1

[13] = tested on: RD (Rhabdomyosarcoma)
How it was run: as §1

[14] = tested on: RPMI-8226 (Plasma Cell Myeloma)
How it was run: as §1

[15] = tested on: SJSA-1 (Osteosarcoma)
How it was run: as §1

[16] = tested on: SK-GT-4 (Esophageal Adenocarcinoma)
How it was run: as §1

[17] = tested on: SU-DHL-5 (B-Cell Non-Hodgkin's Lymphoma)
How it was run: as §1

[18] = tested on: T-T (Esophageal Squamous Cell Carcinoma)
How it was run: as §1

[19] = tested on: VMRC-RCZ (Kidney Carcinoma)
How it was run: as §1

| Compound | Bliss excess [1] | Bliss excess [2] | Bliss excess [3] | Bliss excess [4] | Bliss excess [5] | Bliss excess [6] | Bliss excess [7] | Bliss excess [8] | Bliss excess [9] | Bliss excess [10] | Bliss excess [11] | Bliss excess [12] | Bliss excess [13] | Bliss excess [14] | Bliss excess [15] | Bliss excess [16] | Bliss excess [17] | Bliss excess [18] | Bliss excess [19] |
| --- | --- | --- | --- | --- | --- | --- | --- | --- | --- | --- | --- | --- | --- | --- | --- | --- | --- | --- | --- |
| NC1(C(=O)N[C@@H](CCO)c2ccc(Cl)cc2)CCN(c2ncnc3[nH]ccc23)CC1 [Capivasertib] + CC(=O)c1c(C)c2cnc(Nc3ccc(N4CCNCC4)cn3)nc2n(C2CCCC2)c1=O [Palbociclib] (first compound max 10 µM, 7x7, partner max 10 µM) | -0.0443 | -0.0581 | -0.0203 | -0.0671 | -0.0242 | 0.0662 | -0.0135 | -0.0489 | -0.0365 | -0.0389 | -0.0098 | 0.0183 | -0.0333 | 0.01 | -0.0445 | 0.0029 | 0.0287 | -0.0221 | 0.0321 |
| NC1(C(=O)N[C@@H](CCO)c2ccc(Cl)cc2)CCN(c2ncnc3[nH]ccc23)CC1 [Capivasertib] + CC(C)n1c(=O)n(C)c2cnc3cc(F)c(-c4ccc(OCCCN5CCCCC5)nc4)cc3c21 [AZD1390] (first compound max 10 µM, 7x7, partner max 0.3 µM) | -0.0055 | -0.111 | -0.0465 | -0.0341 | -0.0504 | -0.0037 | -0.0296 | 0.0135 | -0.0685 | -0.0302 | -0.067 | -0.0628 | -0.0146 | -0.0096 | -0.0843 | -0.0586 | -0.0114 | 0.0071 | -0.035 |
| NC1(C(=O)N[C@@H](CCO)c2ccc(Cl)cc2)CCN(c2ncnc3[nH]ccc23)CC1 [Capivasertib] + CCN(CCO)CCCOc1ccc2c(Nc3cc(CC(=O)Nc4cccc(F)c4)[nH]n3)ncnc2c1 [AZD2811] (first compound max 10 µM, 7x7, partner max 1 µM) | -0.054 | 0.004 | 0.0039 | -0.0361 | -0.0088 | 0.0173 | -0.0289 | -0.0328 | -0.0095 | -0.0373 | -0.0086 | 0.0475 | -0.0211 | -0.0101 | -0.0297 | -0.016 | -0.0225 | 0.013 | -0.046 |
| NC1(C(=O)N[C@@H](CCO)c2ccc(Cl)cc2)CCN(c2ncnc3[nH]ccc23)CC1 [Capivasertib] + COc1nnc2ccc(N3CCC(c4ccc(OCCN5CCN(C)C(=O)[C@H]5C)cc4)CC3)nn12 [AZD5153] (first compound max 10 µM, 7x7, partner max 1 µM) | 0.0735 | 0.0578 | 0.0259 | -0.0047 | 0.0028 | -0.05 | 0.124 | -0.0266 | -0.042 | 0.0151 | 0.0145 | 0.0382 | 0.0116 | 0.0244 | -0.0184 | -0.0204 | -0.0179 | -0.0365 | 0.0171 |
| NC1(C(=O)N[C@@H](CCO)c2ccc(Cl)cc2)CCN(c2ncnc3[nH]ccc23)CC1 [Capivasertib] + C[C@@H]1COCCN1C2=NC(=NC(=C2)C3(CC3)[S@](=N)(=O)C)C4=C5C=CNC5=NC=C4 [AZD6738] (first compound max 10 µM, 7x7, partner max 10 µM) | 0.0329 | -0.0679 | -0.0067 | 0.0057 | 0.0086 | 0.0357 | -0.0847 | -0.0366 | -0.0337 | -0.0929 | -0.02 | -0.0139 | -0.0453 | -0.0344 | -0.0414 | -0.0871 | 0.0087 | -0.0452 | -0.0106 |
| NC1(C(=O)N[C@@H](CCO)c2ccc(Cl)cc2)CCN(c2ncnc3[nH]ccc23)CC1 [Capivasertib] + Cn1cnc2c(F)c(Nc3ccc(Br)cc3Cl)c(C(=O)NOCCO)cc21 [Selumetinib] (first compound max 10 µM, 7x7, partner max 10 µM) | 0.0214 | -0.002 | 0.0203 | 0.0271 | -0.0762 | -0.0282 | 0.0691 | -0.0162 | -0.0652 | -0.0355 | 0.0677 | 0.059 | 0.0942 | 0.0411 | -0.0321 | -0.0373 | 0.0547 | 0.095 | -0.0066 |
| Cc1nc(Nc2ncc(C(=O)Nc3c(C)cccc3Cl)s2)cc(N2CCN(CCO)CC2)n1 [Dasatinib] + CC(=O)Nc1cccc(-n2c(=O)n(C3CC3)c(=O)c3c(Nc4ccc(I)cc4F)n(C)c(=O)c(C)c32)c1 [Trametinib] (first compound max 2 µM, 7x7, partner max 1 µM) | -0.0073 | 0.138 | -0.0036 | -0.193 | -0.116 | -0.0046 | -0.0142 | -0.0946 | -0.029 | -0.0782 | 0.0284 | -0.0842 | 0.188 | 0.0121 | 0.0005 | -0.0415 | 0.0159 | 0.0381 | -0.0257 |
